Reference: the supplement of paper PMC11451515

How the values were obtained:
Test in all cases: AUC of viability dose-response curve (% viability x log10 dose units); higher = less sensitive
Conditions in all cases: 48 h
NOMO1 = system: NOMO1
In short: (§1)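 Area under the curve was integrated by trapezoidal rule from a log-logistic fit of normalised viability, with curves exceeding full viability scaled and quality-control failures removed. The fit had four parameters over log10 doses. Viability came from CellTiter-Glo One luminescence, normalised per plate to DMSO and cell-free wells, after leukemia cells adapted to each medium (500 or 1000 cells/well, 1536-well plates) were exposed to library compounds in DMSO for 48 h at 37°C. The 11 threefold doses ran from 47 μM to 0.79 nM.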

P12-Ichikawa = system: P12-Ichikawa
In short: as §1

SEM cells = system: SEM cells
In short: as §1

[1] = RPMI 5 mM glucose + 10% dialyzed FBS

Row | SMILES | AUC of viability dose-response curve (NOMO1; HPLM + 10% dialyzed FBS) | AUC of viability dose-response curve (NOMO1; RPMI 5 mM glucose + 10% FBS) | AUC of viability dose-response curve (NOMO1; [1]) | AUC of viability dose-response curve (P12-Ichikawa; HPLM + 10% dialyzed FBS) | AUC of viability dose-response curve (P12-Ichikawa; RPMI 5 mM glucose + 10% FBS) | AUC of viability dose-response curve (P12-Ichikawa; [1]) | AUC of viability dose-response curve (SEM cells; HPLM + 10% dialyzed FBS) | AUC of viability dose-response curve (SEM cells; RPMI 5 mM glucose + 10% FBS) | AUC of viability dose-response curve (SEM cells; [1])
1 | CCOC(=O)O[C@]1(C(=O)OCCl)CC[C@H]2[C@@H]3CCC4=CC(=O)C=C[C@]4(C)[C@H]3[C@@H](O)C[C@@]21C | 459 | 427 | 431 | 467 | 461 | 450 | 460 | 429 | 430
2 | CCCCCN(CCC12CC3CC(CC(C3)C1)C2)C(=O)NCCCc1ccncc1 | 454 | 465 | 467 | 458 | 469 | 465 | 472 | 463 | 466
3 | CC(C)(C)OC(=O)Nc1ccc(-c2cc(C(=O)NCCCCCCC(=O)NO)no2)cc1 | 379 | 346 | 361 | 333 | 297 | 276 | 343 | 333 | 288
4 | Cc1c(C(=O)c2cccc3ccccc23)c2cccc3c2n1[C@H](CN1CCOCC1)CO3 | 432 | 404 | 394 | 417 | 366 | 397 | 372 | 375 | 403
5 | NC(CO)C(=O)NNCc1ccc(O)c(O)c1O (stereo not given) | 448 | 431 | 454 | 450 | 435 | 428 | 450 | 439 | 437
6 | CC(C)(C)C1=CC(=C(NC(=O)C/2=C/NC3=C(C=CC=C3)C2=O)C=C1O)C(C)(C)C | 447 | 462 | 464 | 471 | 452 | 455 | 461 | 467 | 470
7 | CC(S)C(=O)NCC(=O)O (stereo not given) | 464 | 440 | 469 | 471 | 476 | 472 | 438 | 432 | 417
8 | C[N]1C=C(C=N1)C2=CC=C3N=CC\4=C(N(C(=O)\C=C4)C5=CC6=C(CCN6C(=O)C=C)C=C5)C3=C2 | 359 | 396 | 375 | 404 | 391 | 393 | 359 | 360 | 353
9 | CCOC(=O)N[C@@H]1CC[C@@H]2[C@@H](C1)C[C@H]1C(=O)O[C@H](C)[C@H]1[C@H]2/C=C/c1ccc(-c2cccc(F)c2)cn1 | 466 | 467 | 468 | 472 | 464 | 466 | 473 | 458 | 461
10 | CCOC(=O)[C@H]1O[C@@H]1C(=O)N[C@@H](CC(C)C)C(=O)NCCC(C)C | 448 | 445 | 456 | 462 | 461 | 469 | 462 | 475 | 462
11 | CC(C)Cn1cnc2c(N)nc3ccccc3c21 | 450 | 466 | 448 | 442 | 451 | 463 | 459 | 452 | 455
12 | N#C/C(=C1/Nc2ccccc2S1)c1ccnc(OCc2ccc(CN3CCOCC3)cc2)n1 | 399 | 412 | 407 | 429 | 422 | 434 | 468 | 472 | 461
13 | COc1cc2ncnc(Nc3cccc(Cl)c3)c2cc1OC | 286 | 370 | 343 | 309 | 315 | 305 | 287 | 242 | 274
14 | CC(C)n1cnc2c(NCCc3ccc(O)cc3)nc(-c3csc4ccccc34)nc21 | 393 | 434 | 433 | 371 | 428 | 422 | 424 | 396 | 388
15 | C[C@H](NCc1ccc(OCc2cccc(F)c2)cc1)C(N)=O | 445 | 461 | 454 | 450 | 443 | 443 | 323 | 325 | 290
16 | COC(=O)Nc1nc2ccc([S+]([O-])c3ccccc3)cc2[nH]1 (stereo not given) | 460 | 468 | 466 | 441 | 454 | 461 | 417 | 438 | 441
17 | Oc1ccc(-c2ccc(-c3cc(Nc4cccc(CNC5CC5)c4)[nH]n3)cc2)c(O)c1 | 402 | 396 | 409 | 403 | 372 | 404 | 321 | 376 | 374
18 | CCOCC(O)COc1ccc(NC(=O)CC[S+](C)C)cc1 (stereo not given) | 460 | 411 | 413 | 442 | 452 | 408 | 451 | 424 | 433
19 | C[N]1N=CC=C1C/2=C(\C)N(C(=O)C(=C2)/C(=O)NCC3=NC=C(C=C3)[S+](C)([O-])=O)C4=CC=CC(=C4)C(F)(F)F | – | – | – | 462 | 454 | 455 | 466 | 453 | 468
20 | Cc1cnc(Nc2ccc(CN3CCOCC3)cc2)nc1Nc1cccc([S+](=O)([O-])NC(C)(C)C)c1 | – | – | – | 299 | 300 | 292 | – | – | –
21 | CCN(CC)CCCC(C)Nc1nc(C)cc(Nc2ccc3nc(C)cc(N)c3c2)n1 (stereo not given) | 464 | 470 | 468 | 461 | 464 | 469 | – | – | –
22 | CN(C(Cc1ccc(O[S+](=O)([O-])c2cccc3cnccc23)cc1)C(=O)N1CCN(c2ccccc2)CC1)[S+](=O)([O-])c1cccc2cnccc12 (stereo not given) | 442 | 425 | 436 | 452 | 434 | 450 | 436 | 424 | 428
23 | CCOC(=O)[C@@H](N)CCC(=O)N[C@@H](CSCc1ccccc1)C(=O)N[C@@H](C(=O)OCC)c1ccccc1 | 468 | 466 | 474 | 467 | 458 | 458 | 466 | 473 | 461
24 | O=C(NCc1ccccc1)c1csc(Nc2ccncn2)n1 | 345 | 331 | 335 | 386 | 358 | 367 | 310 | 287 | 310

Row | SMILES | AUC of viability dose-response curve (NOMO1; HPLM + 10% dialyzed FBS) | AUC of viability dose-response curve (NOMO1; RPMI 5 mM glucose + 10% FBS) | AUC of viability dose-response curve (NOMO1; [1]) | AUC of viability dose-response curve (P12-Ichikawa; HPLM + 10% dialyzed FBS) | AUC of viability dose-response curve (P12-Ichikawa; RPMI 5 mM glucose + 10% FBS) | AUC of viability dose-response curve (P12-Ichikawa; [1]) | AUC of viability dose-response curve (SEM cells; HPLM + 10% dialyzed FBS) | AUC of viability dose-response curve (SEM cells; RPMI 5 mM glucose + 10% FBS) | AUC of viability dose-response curve (SEM cells; [1])
25 | Cc1cnc(Nc2ccc(N3CCN(C)CC3)cc2)nc1Nc1cccc([S+](=O)([O-])NC(C)(C)C)c1 | 375 | 411 | 406 | 400 | 390 | 400 | 311 | 303 | 324
26 | COc1ccc2[nH]cc(CCNC(C)=O)c2c1 | 474 | 429 | 462 | 451 | 458 | 444 | 472 | 469 | 446
27 | OC[C@H]1OC(OC2=CC3=C(C(=C2)O)C(=O)\C(=C/O3)C4=CC=C(O)C=C4)[C@H](O)[C@@H](O)[C@@H]1O (stereo not given in full) | 391 | 407 | 372 | 405 | 401 | 391 | 408 | 454 | 451
28 | C1CN\2C[C@@H](\N=C2S1)C3=CC=CC=C3 | 465 | 442 | 429 | 467 | 462 | 455 | 459 | 396 | 476
29 | N#CC[C@H](C1CCCC1)n1cc(-c2ncnc3[nH]ccc23)cn1 | 384 | 374 | 407 | 408 | 401 | 372 | 405 | 396 | 402
30 | C[C@@H](N)C1CC[C@@H](CC1)C(=O)NC2=CC=NC=C2 (stereo not given in full) | 472 | 462 | 466 | 469 | 470 | 470 | 438 | 452 | 464
31 | O=C(NCC1CCOCC1)c1cnc(Nc2ccc(Cl)cc2Cl)nc1C(F)(F)F | 439 | 456 | 456 | 450 | 472 | 465 | 425 | 461 | 448
32 | N#Cc1ccnc(N2C(=O)CC[C@H]2C(=O)N(c2cncc(F)c2)[C@H](C(=O)NC2CC(F)(F)C2)c2ccccc2Cl)c1 | 348 | 356 | 380 | 321 | 333 | 361 | 359 | 334 | 379
33 | CN(C)CCc1c[nH]c2ccc(C[S+](=O)([O-])N3CCCC3)cc12 | 459 | 468 | 460 | 471 | 466 | 466 | 453 | 427 | 433
34 | C[C@H]1Oc2cc(cnc2N)-c2c(nn(C)c2C#N)CN(C)C(=O)c2ccc(F)cc21 | 459 | 467 | 463 | 462 | 463 | 461 | 446 | 457 | 473
35 | C[N+]1(C)[C@@H]2CC(OC(=O)C(O)(c3cccs3)c3cccs3)C[C@H]1[C@@H]1O[C@@H]12 (stereo not given in full) | 464 | 466 | 471 | 471 | 476 | 468 | 462 | 460 | 457
36 | COc1cc2ncn(-c3cc(OCc4ccccc4C(F)(F)F)c(C(N)=O)s3)c2cc1OC | 349 | 375 | 375 | 333 | 352 | 364 | 358 | 354 | 372
37 | Cc1cccc(-c2[nH]c(C(C)(C)C)nc2-c2ccc3c(c2)OCO3)n1 | 418 | 399 | 398 | 413 | 406 | 423 | 411 | 409 | 411
38 | O=C1CCCC(=O)C1C(=O)c1ccc(C(F)(F)F)cc1[N+](=O)[O-] | 403 | 471 | 463 | 465 | 450 | 468 | 474 | 464 | 466
39 | COc1cc2c(Nc3ccc(Cl)c(Cl)c3F)ncnc2cc1OC[C@@H]1C[C@@H]2CN(C)C[C@@H]2C1 | 421 | 450 | 447 | 444 | 453 | 444 | 384 | 443 | 438
40 | CC(C)[N+]1(C)C2CCC1CC(OC(=O)C(CO)c1ccccc1)C2.O.[Br-] (stereo not given) | 423 | 457 | 450 | 383 | 427 | 417 | 449 | 423 | 422
41 | O=C1N\C=N/C2=C1C=N[NH]2 | 425 | 421 | 382 | 393 | 397 | 398 | 359 | 350 | 384
42 | CC[C@@H]1C(=O)N(C)c2cnc(Nc3ccc(C(=O)NC4CCN(C)CC4)cc3OC)nc2N1C1CCCC1 | 259 | 240 | 252 | 187 | 196 | 210 | 205 | 215 | 213
43 | Cc1cccc2c1CC[C@H](CN1CCC(c3c(Cl)cccc3Cl)CC1)C[C@@H]2O | 453 | 424 | 413 | 472 | 425 | 439 | 474 | 437 | 441
44 | CC(C)(O)C(=O)Nc1ccc([N+](=O)[O-])c(C(F)(F)F)c1 | 368 | 355 | 371 | 404 | 409 | 438 | 465 | 449 | 448
45 | CC(C)CC(N(C)C)C1(c2ccc(Cl)cc2)CCC1 (stereo not given) | 441 | 457 | 463 | 393 | 392 | 382 | 424 | 408 | 406
46 | C[C@H](Cc1ccc(O)c(O)c1)[C@@H](C)Cc1ccc(O)c(O)c1 | – | – | – | 443 | 432 | 436 | 394 | 453 | 453
47 | Cc1ccc([S+](=O)([O-])Nc2cc(Cl)ccc2C(=O)Nc2nc(-c3ccccc3)cs2)cc1 | 455 | 409 | 447 | 458 | 457 | 450 | – | – | –
